Results reported in paper PMC11359915, “Rattlesnake Crotalphine Analgesic Active on Tetrodotoxin-Sensitive Na^+ Current in Mouse Dorsal Root Ganglion Neurons” (Toxins, 2024).

Columns and labels:
[1] = tested on: NaV1.7 component of the TTX-sensitive Na^+ current of DRG neurons; type: cell-based, adult mouse (Swiss, Mus musculus)
[2] = tested on: hNaV1.7; details: cited from earlier work
[3] = tested on: hNaV1.1; details: ref [22],[23],[24]; cited from earlier work
[4] = tested on: hNaV1.2–1.6 and hNaV1.8; details: ref [22],[23],[24]; cited from earlier work
[5] = tested on: NaV channels and voltage-sensitive potassium (KV) channels; details: initially NaV channels, later KV channels; ref [28],[29],[30],[31],[32]; cited from earlier work
Text: (§1) To the best of our knowledge, such an effect of the crotalid peptide on cell plasma membrane constituents has never been described in the literature. The simplest explanation is that crotalphine interacts also with lipid membrane constituents since interactions between gating modifier toxins and the lipid membranes surrounding the channel have been previously evidenced. It is therefore likely that, in addition to the Na^+ channel subtype NaV1.7, the crotalid peptide targets also a second cell plasma membrane component. Further experiments are still needed to identify this second me ...

[6] = tested on: certain cells; details: ref [28],[29],[30],[31],[32]; cited from earlier work
Text: as §1

[7] = tested on: DRG neurons; type: cell-based, adult mouse (Swiss, Mus musculus); details: positive control, 0.1%, 5–75 min; mean ± S.E.M., n = 4
Method: The CHO epithelial cell line was cultured as previously described. Primary cultures of DRG neurons were performed using adult female Swiss mice (Mus musculus, 8–12 weeks of age and 25–32 g body weight), purchased from Janvier Elevage (Le Genest-Saint-Isle, France) and acclimatized at the CEA animal facility for at least 48 hr before the experiments. All experimental procedures on mice were permitted by the Animal Ethics Committee of the CEA and the French General Directorate for Research and Innovation (project APAFIS#26651-2020072011192542v1, authorized for E.B. on 20 July 2020 for 5 years). […]
Cell viability was quantified by propidium iodide and trypan blue dye exclusion assays. […] The percentage of viable cells (i.e., the number of non-fluorescent cells relative to the number of total cells) was determined using the ImageJ 1.53g software (National Institutes of Health, Bethesda, MD, USA). At the end of the experiments, the total fluorescence of each well (function of the amount of propidium iodide-positive dead cells) was measured using a CLARIOstar® Plus microplate reader (BMG Labtech, Champigny-Sur-Marne, France).
The data are expressed as the means ± standard error of the mean (S.E.M.) of n different experiments. […]

Compound: NC1=N[C@H](O)[C@H]2[C@H]3O[C@]4(O)O[C@@H]([C@@H](O)[C@@]2(N1)[C@@H]4O)[C@]3(O)CO [TTX, tetrodotoxin]
- Na^+ current decreased to % of the initial peak amplitude [1]: 8.1 ± 5.1%
- recovery of the current after washout [1]: 83.5 ± 4.5%

Compound: ProTx-II: tarantula venom peptide, a well-known selective inhibitor of the NaV1.7 channel subtype
- decrease in the TTX-sensitive Na^+ current amplitude ([1]; 10 nM, n = 3, unpublished data): 79.2 ± 4.8%
- IC50 [2]: 0.3 to 1.6 nM
- IC50 [3]: 16 nM
- IC50 [4]: > 25 nM

Compound: crotamine: the most abundant protein in the Crotalus durissus terrificus's venom (YKQCHKKGGHCFPKEKICLPPSSDFGKMDCRWRWKCCKKGSG; UniProt Q9PWF3 23-64, looked up)
- effect on functioning of ionic channels [5]: alter the functioning of ionic channels
- effect on cell viability [6]: decrease the viability of certain cells

Compound: triton X-100
- decrease in viability of DRG neurons [7]: 89.1 ± 1.7%
